Measured values reported in patent US20230270730A1, “COMPOSITION CONTAINING ARYLAMIDE DERIVATIVE” (Chugai Seiyaku Kabushiki Kaisha, priority 2020, published 2023).

Tests used:
[1] = molecular target: T1, BRAF (Homo sapiens, UniProt P15056); experiment: BRAF-inhibiting activity (time-resolved fluorescence-fluorescence resonance energy transfer assay); format: biochemical; details: MEK1, ATP-containing buffer
T1 construct: purchased Eurofins Genomics KK
Description: The BRAF-inhibiting activity of the compounds listed in Table 2 below was evaluated by the time-resolved fluorescence-fluorescence resonance energy transfer assay as described below.

[2] = Human liver microsome stability; format: in vitro ADME; details: pH 7.4; human liver microsomes, NADPH, 37° C.
Description: The compounds listed in Table 2 below were tested for metabolic stability in human liver microsomes as described below using a Biomek3000 (Beckman Coulter). There were dispensed 400 ILL of 1 mg/mL human liver microsomes (XENOTECH)/0.1 M potassium phosphate buffer (pH 7.4) into each well of a 96-well plate. A DMSO solution (4 μL) of 200 μM test compound was then added, and incubation was conducted until reaching 37° C. To this reaction mixture (200 IL) there was added a solution (200 μL) containing 2 mM NADPH (ORIENTAL YEAST)/0.1 M potassium phosphate buffer (pH 7.4) that had been incubated at 37° C. At 0 min, 5 min, 15 min or 30 min after addition, the reaction mixture (50 μL) was added to acetonitrile (100 μL) to stop the metabolic reaction. After the metabolic reaction was stopped, a 1 μM warfarin aqueous solution (50 μL) was added to each reaction mixture as an internal standard. […] The percent remaining relative to the amount of test compound at 0 min was calculated from the obtained peak area ratio of the test compound to internal standard. The elimination rate constant (ke) was calculated from the incubation time and percent remaining using the primary elimination rate equation, and the hepatic intrinsic clearance (CLint) was calculated using the formula shown below. […]

[3] = tested on: A549 human lung cancer cells; experiment: Cell proliferation-inhibiting activity, A549 (CellTiter-Glo); format: cell-based; details: A549, 96 h
Description: The test compound was serially diluted with DMSO and then diluted 25-fold with Ca^2+, Mg^2+-free phosphate-buffered saline, and was then dispensed into a 96-well plate at 5 μL per well. A cell suspension containing the below indicated concentration of A549, Calu-6 or NCI-H2122 human lung cancer cells (all obtained from ATCC) was prepared using the below indicated medium with the addition of 10% fetal bovine serum (Sigma). The cell suspension was dispensed into the test compound-added plate at 95 μL per well and cultured in a 5% carbon dioxide gas incubator at 37° C. After 4 days, 80 μL of CellTiter-Glo (registered trademark) (Promega Corp.) was added to each well and the bioluminescence was measured with a fluorescent plate reader.

T1 sequence (P15056 whole entry): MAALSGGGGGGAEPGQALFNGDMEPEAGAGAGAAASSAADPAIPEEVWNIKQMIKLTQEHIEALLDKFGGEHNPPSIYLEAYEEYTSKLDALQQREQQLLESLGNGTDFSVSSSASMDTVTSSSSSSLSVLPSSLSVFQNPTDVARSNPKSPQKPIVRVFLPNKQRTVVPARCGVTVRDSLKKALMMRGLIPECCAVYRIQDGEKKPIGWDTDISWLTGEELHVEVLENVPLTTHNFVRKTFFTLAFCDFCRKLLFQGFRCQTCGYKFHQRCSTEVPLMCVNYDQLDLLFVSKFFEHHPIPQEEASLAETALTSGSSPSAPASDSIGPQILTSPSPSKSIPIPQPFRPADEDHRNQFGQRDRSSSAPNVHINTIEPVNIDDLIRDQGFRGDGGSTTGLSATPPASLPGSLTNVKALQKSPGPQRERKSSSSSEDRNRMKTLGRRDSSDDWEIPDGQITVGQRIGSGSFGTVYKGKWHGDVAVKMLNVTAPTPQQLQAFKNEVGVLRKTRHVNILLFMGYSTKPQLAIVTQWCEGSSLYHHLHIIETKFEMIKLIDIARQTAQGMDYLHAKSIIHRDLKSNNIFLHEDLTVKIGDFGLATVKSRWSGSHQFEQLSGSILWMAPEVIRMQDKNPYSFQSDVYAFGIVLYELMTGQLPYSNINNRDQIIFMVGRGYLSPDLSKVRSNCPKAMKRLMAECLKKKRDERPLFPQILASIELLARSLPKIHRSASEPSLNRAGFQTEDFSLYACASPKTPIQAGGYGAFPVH
T1 sequence (Q02750 whole entry partner): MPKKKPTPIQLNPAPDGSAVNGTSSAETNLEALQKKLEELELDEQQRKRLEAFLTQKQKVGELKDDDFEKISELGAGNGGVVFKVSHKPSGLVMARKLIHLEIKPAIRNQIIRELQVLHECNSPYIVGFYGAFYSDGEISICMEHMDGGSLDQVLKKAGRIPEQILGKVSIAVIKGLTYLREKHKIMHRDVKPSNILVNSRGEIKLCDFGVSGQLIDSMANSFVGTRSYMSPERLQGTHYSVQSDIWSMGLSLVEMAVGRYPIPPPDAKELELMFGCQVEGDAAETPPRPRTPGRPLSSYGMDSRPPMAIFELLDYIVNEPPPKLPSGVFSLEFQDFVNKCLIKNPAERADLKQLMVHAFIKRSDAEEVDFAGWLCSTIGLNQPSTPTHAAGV

## CCNS(=O)(=O)Nc1nccc(Cc2cc(C(=O)NOCCO)c(Nc3ccc(I)cc3F)c(F)c2F)c1F [Sample A-44, 5-[[2-(Ethylsulfamoylamino)-3-fluoropyridin-4-yl]methyl]-3,4-difluoro-2-(2-fluoro-4-iodoanilino)-N-(2-hydroxyethoxy)benzamide]
[1]
  IC50: 9 nM

## NC(=O)c1cc(Cc2ccnc(NS(=O)(=O)NC3C4COCC43)c2F)c(F)c(F)c1Nc1ccc(I)cc1F (centres unmarked) [Sample A-22, 3,4-Difluoro-2-(2-fluoro-4-iodoanilino)-5-[[3-fluoro-2-(3-oxabicyclo[3.1.0]hexan-6-ylsulfamoylamino)pyridin-4-yl]methyl]benzamide]
[2]
  microsomal CLint at 0.99 µM: 47 µL/min/mg

## CC1(NS(=O)(=O)Nc2nccc(Cc3cc(C(N)=O)c(Nc4ccc(I)cc4F)c(F)c3F)c2F)CCC1 [Sample A-35, 3,4-difluoro-2-(2-fluoro-4-iodoanilino)-5-[[3-fluoro-2-[(1-methylcyclobutyl)sulfamoylamino]pyridin-4-yl]methyl]benzamide]
[3]
  IC50: 2 nM

## NC(=O)c1cc(Cc2ccnc(NS(=O)(=O)NCC3COC3)c2F)c(F)c(F)c1Nc1ccc(I)cc1F [Sample A-21, 3,4-difluoro-2-(2-fluoro-4-iodoanilino)-5-[[3-fluoro-2-(oxetan-3-ylmethylsulfamoylamino)pyridin-4-yl]methyl]benzamide]
[3]
  IC50: 3 nM

## NC(=O)c1cc(Cc2ccnc(NS(=O)(=O)NC3CCOCC3)c2F)c(F)c(F)c1Nc1ccc(I)cc1F [Sample A-29, 3,4-Difluoro-2-(2-fluoro-4-iodoanilino)-5-[[3-fluoro-2-(oxan-4-ylsulfamoylamino)pyridin-4-yl]methyl]benzamide]
[1]
  IC50: 1 nM
